Source: paper PMC5766608, “Target engagement imaging of PARP inhibitors in small-cell lung cancer” (Nature Communications, 2018)

Experiments:
[1] = molecular target: T1, TNKS2 (Homo sapiens, UniProt Q9H2K2); assay: PARP family enzyme activity inhibition screening (BPS Bioscience); assay type: biochemical; conditions: 100 nM inhibitor
T1 construct: purchased BPS Bioscience, San Diego, CA
T1 sequence (Q9H2K2 1-1166): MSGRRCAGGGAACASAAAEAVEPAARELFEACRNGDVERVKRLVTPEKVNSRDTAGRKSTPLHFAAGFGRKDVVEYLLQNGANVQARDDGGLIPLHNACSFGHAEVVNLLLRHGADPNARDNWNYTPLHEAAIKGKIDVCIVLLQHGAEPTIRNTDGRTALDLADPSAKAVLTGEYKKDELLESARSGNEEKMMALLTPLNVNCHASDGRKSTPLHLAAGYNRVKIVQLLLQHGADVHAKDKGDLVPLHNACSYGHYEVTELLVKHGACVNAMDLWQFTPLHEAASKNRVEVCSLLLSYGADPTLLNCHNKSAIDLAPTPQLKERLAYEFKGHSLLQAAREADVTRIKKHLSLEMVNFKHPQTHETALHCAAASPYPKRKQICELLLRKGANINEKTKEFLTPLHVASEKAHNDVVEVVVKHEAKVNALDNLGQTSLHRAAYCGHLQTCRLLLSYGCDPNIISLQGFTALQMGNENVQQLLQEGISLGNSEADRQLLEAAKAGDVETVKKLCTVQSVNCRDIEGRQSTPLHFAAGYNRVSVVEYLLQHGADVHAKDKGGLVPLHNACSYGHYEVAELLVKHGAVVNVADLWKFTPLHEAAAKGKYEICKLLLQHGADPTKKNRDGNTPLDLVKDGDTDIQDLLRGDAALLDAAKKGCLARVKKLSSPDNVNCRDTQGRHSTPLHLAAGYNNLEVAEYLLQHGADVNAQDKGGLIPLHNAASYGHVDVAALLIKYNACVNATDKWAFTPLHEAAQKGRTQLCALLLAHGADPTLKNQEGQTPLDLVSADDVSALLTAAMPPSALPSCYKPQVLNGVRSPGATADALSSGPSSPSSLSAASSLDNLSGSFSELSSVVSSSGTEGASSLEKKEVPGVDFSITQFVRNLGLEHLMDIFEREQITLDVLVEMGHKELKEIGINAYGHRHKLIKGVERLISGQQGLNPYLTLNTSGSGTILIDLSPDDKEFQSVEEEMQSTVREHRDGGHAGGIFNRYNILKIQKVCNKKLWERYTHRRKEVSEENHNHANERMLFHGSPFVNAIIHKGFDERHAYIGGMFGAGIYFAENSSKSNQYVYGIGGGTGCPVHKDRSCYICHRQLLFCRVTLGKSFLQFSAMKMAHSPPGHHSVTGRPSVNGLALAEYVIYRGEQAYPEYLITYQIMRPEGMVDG
Procedure: (§1) Fig. 1 Properties of PARP inhibitors. a Structures of 5 clinical therapeutic PARP inhibitors and the 2 PARP imaging agents. b Heatmap visualizing enzymatic activity screening of 10 small molecules against 12 PARP enzymes at 100 nM concentration (for additional concentrations, see Supplementary Fig. 1)
(§2) Assay was performed by BPS Bioscience, San Diego, CA. 100 µM DMSO solutions of each inhibitor were provided, and the assay was conducted after dilution to 100, 50, or 10 nM. […] Data was reported by BPS as % Enzyme Activity. Triplicates were combined to get a mean ± SD, and these were grouped and plotted onto a heatmap using Prism 7.
(§3) Supplementary Figure 1 | PARP enzyme family binding assays at additional concentrations.
(§4) histone substrate and biotin-labeled NAD+ at 100 nM (Fig. 1b), 50 nM (left) and 10 nM (right) for
(§5) each inhibitor and each enzyme.

[2] = molecular target: T2, TNKS1 (Homo sapiens, UniProt O95271); assay: as above; assay type: biochemical; conditions: 100 nM inhibitor
T2 construct: purchased BPS Bioscience, San Diego, CA
T2 sequence (O95271 1-1327): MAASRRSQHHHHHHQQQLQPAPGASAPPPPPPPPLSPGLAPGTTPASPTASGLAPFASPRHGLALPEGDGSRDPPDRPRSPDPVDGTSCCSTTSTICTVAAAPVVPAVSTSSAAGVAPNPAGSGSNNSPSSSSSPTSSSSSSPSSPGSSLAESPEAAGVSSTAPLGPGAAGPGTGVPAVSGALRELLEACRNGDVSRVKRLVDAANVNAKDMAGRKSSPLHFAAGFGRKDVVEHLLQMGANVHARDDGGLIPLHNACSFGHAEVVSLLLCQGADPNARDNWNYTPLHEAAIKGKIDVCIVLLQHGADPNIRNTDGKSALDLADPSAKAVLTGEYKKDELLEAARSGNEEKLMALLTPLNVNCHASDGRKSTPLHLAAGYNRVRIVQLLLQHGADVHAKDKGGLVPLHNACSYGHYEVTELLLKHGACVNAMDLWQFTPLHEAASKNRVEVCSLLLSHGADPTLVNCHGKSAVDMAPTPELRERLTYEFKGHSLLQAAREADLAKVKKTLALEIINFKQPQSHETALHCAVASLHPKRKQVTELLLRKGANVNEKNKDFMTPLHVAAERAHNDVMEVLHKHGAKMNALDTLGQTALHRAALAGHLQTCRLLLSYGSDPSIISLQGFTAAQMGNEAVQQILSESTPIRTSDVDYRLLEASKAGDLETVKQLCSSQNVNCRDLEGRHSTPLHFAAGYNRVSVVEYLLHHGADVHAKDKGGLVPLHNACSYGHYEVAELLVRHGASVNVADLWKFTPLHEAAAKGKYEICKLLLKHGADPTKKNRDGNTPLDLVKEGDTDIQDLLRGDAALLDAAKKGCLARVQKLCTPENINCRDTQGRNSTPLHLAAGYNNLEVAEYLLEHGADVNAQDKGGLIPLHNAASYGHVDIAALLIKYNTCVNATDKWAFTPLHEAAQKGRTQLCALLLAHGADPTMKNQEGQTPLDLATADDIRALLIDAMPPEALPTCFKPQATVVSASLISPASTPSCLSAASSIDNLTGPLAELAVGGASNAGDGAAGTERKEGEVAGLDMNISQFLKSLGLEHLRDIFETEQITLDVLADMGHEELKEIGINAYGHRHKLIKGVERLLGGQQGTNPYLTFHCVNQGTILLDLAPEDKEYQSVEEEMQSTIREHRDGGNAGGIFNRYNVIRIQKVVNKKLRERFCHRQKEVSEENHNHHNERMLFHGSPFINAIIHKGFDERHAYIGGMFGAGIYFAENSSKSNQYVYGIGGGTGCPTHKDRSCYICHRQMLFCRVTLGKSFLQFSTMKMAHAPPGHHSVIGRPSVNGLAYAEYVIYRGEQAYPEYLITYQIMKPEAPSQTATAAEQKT
Procedure: as §1, §2, §3, §4, §5

| Compound | inhibition at 0.1 µM [1] [%] | inhibition at 0.1 µM [2] [%] | Inhibition of TNKS2 enzyme activity [1] | Inhibition of TNKS1 enzyme activity [2] |
| --- | --- | --- | --- | --- |
| CC1=CC(C)=[N+]2C1=Cc1ccc(CCC(=O)N3CCN(C(=O)c4cc(Cc5n[nH]c(=O)c6ccccc56)ccc4F)CC3)n1[B-]2(F)F [PARPi-FL] | ≤ 5 | ≤ 5 |  |  |
| Cn1ncnc1[C@H]1c2n[nH]c(=O)c3cc(F)cc(c23)N[C@@H]1c1ccc(F)cc1 [Talazoparib, (8S,9R)-5-Fluoro-8-(4-fluorophenyl)-9-(1-methyl-1H-1,2,4-triazol-5-yl)-2,7,8,9-tetrahydro-3H-pyrido[4,3,2-de]phthalazin-3-one] |  |  | exhibited inhibition | exhibited inhibition |
| O=C(c1ccc(F)cc1)N1CCN(C(=O)c2cc(Cc3n[nH]c(=O)c4ccccc34)ccc2F)CC1 [^19F-PARPi] |  |  | ≤ 5% | ≤ 5% |
